Source: patent US8637237B2, “Methods, compositions, and systems for the identification of species-specific or developmental stage-specific insecticides” (The University of North Carolina at Greensboro, priority 2003, dated 2014)
One block for each molecule: values may come before it.

Legend:
GRdEcR/RXR [1] = target: T1, GRdEcR/RXR (Drosophila melanogaster, UniProt P34021, E261P/P331L/Q260P/V259R); experiment: GRdEcR (GEcEc) chimera with RXR, (EcRE)5-ΔMTV reporter in CHO cells; type: cell-based
T1 construct: ligation of a Not I-Bam HI fragment containing the DBD and LBD of a modified EcR cDNA, EcRnx; expressed in transfected cells; host or cells: CHO
T1 sequence (P34021 259-878 V259R/Q260P/E261P/P331L limits assumed): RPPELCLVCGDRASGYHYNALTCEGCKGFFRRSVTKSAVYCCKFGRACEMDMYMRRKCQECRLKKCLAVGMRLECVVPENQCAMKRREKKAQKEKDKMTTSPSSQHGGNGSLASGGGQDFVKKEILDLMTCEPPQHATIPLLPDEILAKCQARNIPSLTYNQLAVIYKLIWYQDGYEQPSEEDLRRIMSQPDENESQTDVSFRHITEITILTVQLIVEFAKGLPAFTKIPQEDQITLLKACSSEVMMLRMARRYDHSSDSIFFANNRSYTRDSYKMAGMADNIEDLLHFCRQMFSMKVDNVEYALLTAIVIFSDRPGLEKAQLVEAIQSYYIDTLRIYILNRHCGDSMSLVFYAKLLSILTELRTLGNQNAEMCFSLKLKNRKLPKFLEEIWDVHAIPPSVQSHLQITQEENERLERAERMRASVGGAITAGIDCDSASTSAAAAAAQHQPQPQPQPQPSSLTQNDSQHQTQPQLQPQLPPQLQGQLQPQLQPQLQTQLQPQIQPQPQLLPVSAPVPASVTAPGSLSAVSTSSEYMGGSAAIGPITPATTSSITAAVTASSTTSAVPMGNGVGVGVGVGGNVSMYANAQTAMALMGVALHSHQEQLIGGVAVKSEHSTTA
T1 sequence (P28700 1-467 partner): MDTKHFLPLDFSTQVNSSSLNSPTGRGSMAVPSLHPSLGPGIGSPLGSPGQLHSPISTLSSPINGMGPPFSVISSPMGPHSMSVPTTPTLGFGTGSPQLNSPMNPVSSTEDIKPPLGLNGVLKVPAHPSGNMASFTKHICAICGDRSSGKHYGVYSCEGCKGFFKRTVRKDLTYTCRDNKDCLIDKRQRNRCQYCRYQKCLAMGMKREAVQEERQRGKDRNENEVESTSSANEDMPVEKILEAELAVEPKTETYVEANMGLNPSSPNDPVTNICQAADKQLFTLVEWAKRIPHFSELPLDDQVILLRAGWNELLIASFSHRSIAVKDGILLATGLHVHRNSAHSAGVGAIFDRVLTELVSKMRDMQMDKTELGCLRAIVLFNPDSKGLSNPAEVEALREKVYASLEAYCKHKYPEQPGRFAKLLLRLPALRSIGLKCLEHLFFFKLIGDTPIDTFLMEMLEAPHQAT
Description: (§1) These experiments employed a mammalian cell culture system using Chinese hamster ovary cells (CHO) to evaluate the transcriptional function of Drosophila melanogaster EcR and USP using methods described previously (U.S. Patent Application Publication No: 2005/0049230; Henrich et al, 2003). Cells were seeded in 6-well polypropylene culture plates (Falcon) with 10^5 cells per well on the day prior to transfection. Transfection was subsequently performed using either calcium phosphate (Kitareewan et al., 1996, Mol. Biol. Cell, 7:1153-1196) or a GenePorter reagent (Gene Therapy Systems, Inc; San Diego, Calif.) following manufacturer's protocols. Each well received 1.25 μg of (EcRE)5-ΔMTV-CAT (five copies of the hsp27 EcRE inserted into an mouse mammary tumor virus (MTV) promoter upstream of the chloramphenicol acetyltransferase (CAT) gene) or (EcRE)5-ΔMTV-LUC (the same promoter attached to firefly luciferase), 1.25 μg of pCH111 (SV40 early promoter linked to the β-galactosidase gene) to normalize CAT activity, and 0.25 μg of each expression plasmid (EcR, FXR, RXR, USP) that was tested. The cells were incubated with plasmid DNA for seven hours and then washed with 1×PBS. Muristerone A (murA; Alexis Biochemicals) or 20-hydroxyecdysone (20E; Sigma) dissolved in ethanol to a concentration of 10 mM was diluted as necessary to the final assay concentration (FAC) in 2 ml of fresh incubation medium that was then applied to the cells. Similarly, JHIII (Sigma) was dissolved in dimethyl sulfoxide (DMSO) to a concentration of […] and diluted into the incubation medium to its final assay concentration (20, 40, 80, 160 μM). […] A corresponding volume of ethanol and DMSO were added to control cells for all experiments. For all experiments, the cells were allowed to incubate with the medium for 24 hours before collection and cell lysates were prepared by described methods (Kitareewan et al., 1996). Both β-galactosidase and CAT reporter activity were measured based on previously used methods (Kitareewan et al, 1996). Luciferase assays using luciferrin followed the specifications of the manufacturer.
(§2) Transcriptional activity, measured as ^14C-chloramphenicol counts (for measuring CAT activity) or relative luciferase activity (RLU) was quantified for each cell lysate. The counts were then normalized by adjusting for differences in β-galactosidase activity, since β-galactosidase expression is controlled by a constitutive promoter and provides an estimate of cell mass. Data were normalized as fold-induction based on differences in reporter gene activity between hormonally treated and control cells.
(§3) In an initial series of studies, a GRdEcR chimera that consists of the rat glucocorticoid receptor (GR) activation domain attached to the EcR DBD and LBD (FIG. 1) was cotransfected along with mRXRα into CHO cells. The response of transfected cells to murA was measured using a (EcRE)5-ΔMTV-CAT reporter plasmid that carries five tandem repeats of the hsp27 EcRE linked to the MTV (mouse mammary tumor virus) promoter and the chloramphenicol acetyltransferase gene (CAT).
(§4) The prominent candidate for this JH-responsive macromolecule in insects is the structurally-related ecdysone receptor (EcR). Like FXR, EcR heterodimerizes with RXR and binds to the hsp27 ecdysone-responsive DNA element (Forman et al., 1995), but distinctively activates transcription in response to muristerone A (MurA or MUR), a synthetic ecdysone (Yao et al., 1992). […] In the experiments shown in FIG. 15A, muristerone A (MUR) was added at the indicated doses in ethanol vehicle, and increasing amounts of JH III (12, 25, or 50 μM) were added (underlying triangles). Numbers over bars indicate the ratio of the GEcEc-dependent activity produced by 50 μM JH III in the presence of the indicated dose of MUR to the activity produced by MUR alone. Relative light units (RLU) from firefly luciferase in cell lysates are expressed relative to renilla luciferase (Promega).

FXR = target: T2, FXR (Rattus norvegicus, UniProt Q62735); experiment: cell-based
T2 sequence (Q62735 1-469): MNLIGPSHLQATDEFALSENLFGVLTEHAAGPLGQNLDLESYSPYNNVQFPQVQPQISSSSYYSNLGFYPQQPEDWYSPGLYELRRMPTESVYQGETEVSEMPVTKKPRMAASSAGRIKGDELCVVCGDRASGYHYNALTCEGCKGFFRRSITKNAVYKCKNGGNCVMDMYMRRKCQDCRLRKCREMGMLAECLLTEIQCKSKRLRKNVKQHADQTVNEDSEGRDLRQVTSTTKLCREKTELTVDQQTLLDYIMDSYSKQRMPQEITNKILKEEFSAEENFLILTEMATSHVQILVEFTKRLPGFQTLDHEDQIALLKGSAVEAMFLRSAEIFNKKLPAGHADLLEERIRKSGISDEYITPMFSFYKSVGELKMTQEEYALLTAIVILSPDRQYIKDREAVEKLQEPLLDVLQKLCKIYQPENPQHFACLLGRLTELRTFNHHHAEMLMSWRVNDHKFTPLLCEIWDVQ
T2 sequence (P28700 1-467 partner): T1 sequence (P28700 1-467 partner)
Description: as §1, §2
In these experiments, candidate juvenoids were tested for their ability to activate FXR mediated transcription by transfecting Chinese hamster ovary (CHO) cells using the FXR plasmid, mouse RXRα, and the ΔMTV-(EcRE)5-CAT reporter as described herein. An RXR-dependent CRBPII-CAT reporter plasmid was employed in parallel assays to discern activators specific for this receptor.

GRdEcR/RXR [2] = target: T3, GRdEcR/RXR (Drosophila melanogaster, UniProt P34021); experiment: GRdEcR (GEcEc) chimera with RXR, (EcRE)5-ΔMTV reporter in CHO cells; type: cell-based; conditions: 25 μM insecticide; 10 nM MUR
T3 construct: ligation of a Not I-Bam HI fragment containing the DBD and LBD of a modified EcR cDNA, EcRnx; expressed in transfected cells; host or cells: CHO
T3 sequence (P34021 259-878 V259R/Q260P/E261P/P331L limits assumed): T1 sequence (P34021 259-878 V259R/Q260P/E261P/P331L limits assumed)
T3 sequence (P28700 1-467 partner): T1 sequence (P28700 1-467 partner)
Description: as §1, §2, §3, §4

insect = conditions: from Schneiderman and Gilbert, Science 143; cited from earlier work
[3] = final dose of 50 ∝M, 1 = induction less than 2-fold below cytotoxic doses

Molecule: C[C@H](CCC(=O)O)[C@H]1CC[C@H]2[C@@H]3[C@H](O)C[C@@H]4C[C@H](O)CC[C@]4(C)[C@H]3CC[C@]12C [CDCA, chenodeoxycholic acid]
- induction of GEcEc (GRdEcR/RXR [1]; data not shown): did not induce

Molecule: CCOP(=S)(OCC)Oc1nc(Cl)c(Cl)cc1Cl [chlorpyrifos]
- FXR-dependent activity, induction (FXR; 25 μM): potencies and efficacies like farnesol
- GEcEc-dependent activity, insecticide plus MUR over MUR alone (GRdEcR/RXR [2]): nine times

Molecule: CCOP(=S)(OCC)Oc1ccc2c(C)c(Cl)c(=O)oc2c1 [coumaphos]
- GEcEc-dependent activity, insecticide plus MUR over MUR alone (GRdEcR/RXR [2]): between two and three times

Molecule: CCOP(=S)(OCC)Oc1cc(C)nc(C(C)C)n1 [diazinon]
- GEcEc-dependent activity, insecticide plus MUR over MUR alone (GRdEcR/RXR [2]): between two and three times

Molecule: CC(C)=CCCC(C)=CCCC(C)=CC=O [farnesal]
- FXR-dependent CAT activity, induction (FXR; 50 μM): 2 fold
- FXR ACTIVITY (fold-induction) (FXR; [3]): 2 fold-induction
- JH ACTIVITY (units/g) (insect): 32 units/g

Molecule: CC(C)=CCC/C(C)=C/CC/C(C)=C/CO [farnesol, all-trans farnesol]
- JH ACTIVITY (units/g) (insect): 140 units/g
- increase in GEcEc activity over that provided by MUR alone (GRdEcR/RXR [1]; 45 μM farnesol with MUR): 4 fold

Molecule: CC(=O)OCC=C(C)CCC=C(C)CCC=C(C)C [farnesyl acetate]
- JH ACTIVITY (units/g) (insect): 5.4 units/g

Molecule: CC(C)=CCC/C(C)=C/CO [geraniol]
- FXR-dependent activity, induction (FXR; dose not stated): neither the monoterpenes linalool (200 μM) nor geraniol were effective
- FXR ACTIVITY (fold-induction) (FXR; [3]): 1 fold-induction
- JH ACTIVITY (units/g) (insect): 0 units/g

Molecule: CC(C)CCCC(C)CCCC(C)CCO (stereo not drawn) [hexahydrofarnesol]
- JH ACTIVITY (units/g) (insect): 0 units/g

Molecule: C=CC(C)(O)CCCC(C)CCCC(C)CCCC(C)C (stereo not drawn) [isophytol]
- JH ACTIVITY (units/g) (insect): 0 units/g

Molecule: C=CC(C)(O)CCC=C(C)C (stereo not drawn) [linalool]
- JH ACTIVITY (units/g) (insect): 0.08 units/g

Molecule: CC1(C)C(C=C(Cl)Cl)C1C(=O)OCc1cccc(Oc2ccccc2)c1 (stereo not drawn) [permethrin]
- GEcEc-dependent activity, insecticide plus MUR over MUR alone (GRdEcR/RXR [2]): between two and three times

- FXR-dependent CAT activity, induction (FXR; 50 μM): three times
Molecule: C/C(=C\CO)CCC[C@H](C)CCC[C@H](C)CCCC(C)C [phytol]
- FXR ACTIVITY (fold-induction) (FXR; [3]): 3 fold-induction
- JH ACTIVITY (units/g) (insect): 32 units/g

Molecule: c1cc2c(cc1[C@H]1OC[C@H]3[C@@H]1CO[C@@H]3c1ccc3c(c1)OCO3)OCO2 [sesamin]
- FXR-dependent activity, induction (FXR; 100 μM): 12 fold
- FXR ACTIVITY (fold-induction) (FXR; dose 100 μM, 1 = no increase over vehicle): 12 fold-induction
- potentiation of MUR-inducible GEcEc-dependent activity (GRdEcR/RXR [1]; 25 μM test compound, 0.2 μM muristerone A): between two and four times

Molecule: CC(C)=CCC/C(C)=C/CC/C(C)=C/CC/C(C)=C/CC/C(C)=C/CC/C(C)=C/CC/C(C)=C/CC/C(C)=C/CC/C(C)=C/CO [solanesol]
- JH ACTIVITY (units/g) (insect): 0.05 units/g

- FXR-dependent activity, induction (FXR; 800 μM): two-fold
- FXR ACTIVITY (fold-induction) (FXR; dose 400 μM): 402 fold-induction
Molecule: CC1=CCC(C(C)(C)O)CC1 (stereo not drawn) [α-terpineol]

- FXR-dependent activity, induction (FXR; 25 μM): 11 fold
- FXR ACTIVITY (fold-induction) (FXR; dose 25 μM): 11 fold-induction
Molecule: C[C@H]1[C@H](C)CC[C@]2(C)CC[C@]3(C)C(=CC[C@@H]4[C@@]5(C)CC[C@@H](O)[C@](C)(C(=O)O)[C@@H]5CC[C@]43C)[C@H]12 [β-boswellic acid]

- FXR ACTIVITY (fold-induction) (FXR; dose 150 μM): 10 fold-induction
Molecule: CC(=O)/C=C/C1=C(C)CCCC1(C)C [β-ionone]

Molecule: CC(C)=CCC/C(C)=C/CC/C(C)=C/CC[C@]1(C)CCc2cc(O)c(C)c(C)c2O1 [γ-tocotrienol]
- FXR ACTIVITY (fold-induction) (FXR; dose 20 μM, 1 = no increase over vehicle): 1 fold-induction

Molecule: aroclor 1254
- FXR-dependent CAT activity, induction (FXR; 5 μM): 5 fold

Molecule: geranyl linalool
- JH ACTIVITY (units/g) (insect): 0.14 units/g

Molecule: precocene
- inhibition of FXR-dependent activity in the CHO cell-based assay (FXR): did not inhibit
- GEcEc-dependent activity, insecticide plus MUR over MUR alone (GRdEcR/RXR [2]): between two and three times

Molecule: toxaphenes
- FXR-dependent CAT activity, induction (FXR; 5 μM): 9 fold
